Assay results reported in ChEMBL document CHEMBL1681728, “An automated, polymer-assisted strategy for the preparation of urea and thiourea derivatives of 15-membered azalides as potential antimalarial chemotherapeutics” (Bioorg Med Chem, 2011).
pIC50: −log10 of the molar value.

Columns and labels:
Assay type in all cases: functional, organism-based
Plasmodium falciparum [1] = experiment: Antimalarial activity against multidrug-resistant Plasmodium falciparum TM91C235 assessed as inhibition of [3H]hypoxanthine incorporation after 96 hrs by microtiter plate scintillation counting
Plasmodium falciparum [2] = experiment: Antimalarial activity against chloroquine-sensitive Plasmodium falciparum D6 assessed as inhibition of [3H]hypoxanthine incorporation after 96 hrs by microtiter plate scintillation counting
Plasmodium falciparum [3] = experiment: Antimalarial activity against chloroquine-,pyrimethamine-resistant Plasmodium falciparum W2 assessed as inhibition of [3H]hypoxanthine incorporation after 96 hrs by microtiter plate scintillation counting

Row | SMILES | pIC50 (Plasmodium falciparum [1]) | pIC50 (Plasmodium falciparum [2]) | pIC50 (Plasmodium falciparum [3])
1 | CC[C@H]1OC(=O)[C@H](C)[C@@H](O[C@H]2C[C@@](C)(OC)[C@@H](O)[C@H](C)O2)[C@H](C)[C@@H](O[C@@H]2O[C@H](C)C[C@H](N(C)C)[C@H]2O)[C@](C)(O)C[C@@H](C)CN(CCCNC(=S)NC(c2ccccc2)(c2ccccc2)c2ccccc2)[C@H](C)[C@@H](O)[C@]1(C)O | 7.50 | 6.90 | 7.43
2 | CC[C@H]1OC(=O)[C@H](C)[C@@H](O[C@H]2C[C@@](C)(OC)[C@@H](O)[C@H](C)O2)[C@H](C)[C@@H](O[C@@H]2O[C@H](C)C[C@H](N(C)C)[C@H]2O)[C@](C)(O)C[C@@H](C)CN(CCCNC(=S)Nc2cccc([N+](=O)[O-])c2)[C@H](C)[C@@H](O)[C@]1(C)O | 7.37 | 7.27 | 7.32
3 | CC[C@H]1OC(=O)[C@H](C)[C@@H](O[C@H]2C[C@@](C)(OC)[C@@H](O)[C@H](C)O2)[C@H](C)[C@@H](O[C@@H]2O[C@H](C)C[C@H](N(C)C)[C@H]2O)[C@](C)(O)C[C@@H](C)CN(CCCNC(=S)Nc2ccc([N+](=O)[O-])cc2)[C@H](C)[C@@H](O)[C@]1(C)O | 7.29 | 6.99 | 7.43
4 | CC[C@H]1OC(=O)[C@H](C)[C@@H](O[C@H]2C[C@@](C)(OC)[C@@H](O)[C@H](C)O2)[C@H](C)[C@@H](O[C@@H]2O[C@H](C)C[C@H](N(C)C)[C@H]2O)[C@](C)(O)C[C@@H](C)CN(CCCNC(=S)Nc2cccc(C(F)(F)F)c2)[C@H](C)[C@@H](O)[C@]1(C)O | 7.27 | 6.92 | 7.52
5 | CC[C@H]1OC(=O)[C@H](C)[C@@H](O[C@H]2C[C@@](C)(OC)[C@@H](O)[C@H](C)O2)[C@H](C)[C@@H](O[C@@H]2O[C@H](C)C[C@H](N(C)C)[C@H]2O)[C@](C)(O)C[C@@H](C)CN(CCCNC(=S)NC(c2ccccc2)c2ccccc2)[C@H](C)[C@@H](O)[C@]1(C)O | 7.26 | 6.66 | 7.42
6 | CC[C@H]1OC(=O)[C@H](C)[C@@H](O[C@H]2C[C@@](C)(OC)[C@@H](O)[C@H](C)O2)[C@H](C)[C@@H](O[C@@H]2O[C@H](C)C[C@H](N(C)C)[C@H]2O)[C@](C)(O)C[C@@H](C)CN(CCCNC(=S)NCCN2CCOCC2)[C@H](C)[C@@H](O)[C@]1(C)O | 5.48 | 4.91 | 5.68
7 | CC[C@H]1OC(=O)[C@H](C)[C@@H](O[C@H]2C[C@@](C)(OC)[C@@H](O)[C@H](C)O2)[C@H](C)[C@@H](O[C@@H]2O[C@H](C)C[C@H](N(C)C)[C@H]2O)[C@](C)(O)C[C@@H](C)CN(CCCNC(=S)NCCCN2CCOCC2)[C@H](C)[C@@H](O)[C@]1(C)O | 5.29 | 5.15 | 5.90
8 | CC[C@H]1OC(=O)[C@H](C)[C@@H](O[C@H]2C[C@@](C)(OC)[C@@H](O)[C@H](C)O2)[C@H](C)[C@@H](O[C@@H]2O[C@H](C)C[C@H](N(C)C)[C@H]2O)[C@](C)(O)C[C@@H](C)CN(CCCNC(=S)NCCCN(CC)CC)[C@H](C)[C@@H](O)[C@]1(C)O | 4.91 | 6.10 | 5.50
9 | CC[C@H]1OC(=O)[C@H](C)[C@@H](O[C@H]2C[C@@](C)(OC)[C@@H](O)[C@H](C)O2)[C@H](C)[C@@H](O[C@@H]2O[C@H](C)C[C@H](N(C)C)[C@H]2O)[C@](C)(O)C[C@@H](C)CN(CCCNC(=O)Nc2c(C)noc2C)[C@H](C)[C@@H](O)[C@]1(C)O | 4.89 | 4.89 | 4.89
10 | CC[C@H]1OC(=O)[C@H](C)[C@@H](O[C@H]2C[C@@](C)(OC)[C@@H](O)[C@H](C)O2)[C@H](C)[C@@H](O[C@@H]2O[C@H](C)C[C@H](N(C)C)[C@H]2O)[C@](C)(O)C[C@@H](C)CN(CCCNC(=S)NCCCl)[C@H](C)[C@@H](O)[C@]1(C)O | 4.89 | 4.89 | 4.89
